# System: MV-4-11 cells
# Assay: Gene expression microarray analysis (Affymetrix PrimeView) and GSEA
# Format: cell-based, human
# Parameters: RFU PODN (11730768_x_at) / Fold change /veh PODN (11730768_x_at) / RFU LINC00158 (11744669_a_at) / Fold change /veh LINC00158 (11744669_a_at) / RFU DUSP10 (11751237_a_at) / Fold change /veh DUSP10 (11751237_a_at) / RFU ID3 (11757404_x_at) / Fold change /veh ID3 (11757404_x_at) / RFU PLEKHG5 (11737974_s_at) / Fold change /veh PLEKHG5 (11737974_s_at) / RFU LRRC4B (11730491_at) / Fold change /veh LRRC4B (11730491_at) / RFU GIMAP4 (11747438_a_at) / Fold change /veh GIMAP4 (11747438_a_at) / RFU KRT8 (11758183_x_at) / Fold change /veh KRT8 (11758183_x_at) / RFU CNN1 (11734310_a_at) / Fold change /veh CNN1 (11734310_a_at) / RFU VPS37D (11726825_at) / Fold change /veh VPS37D (11726825_at) / RFU C10orf10 (11716522_x_at) / Fold change /veh C10orf10 (11716522_x_at) / RFU KIR2DL2 /// KIR2DL4 /// KIR2DL5A /// KIR2DL5B /// KIR2DS1 /// KIR2DS2 /// KIR2DS3 /// KIR2DS4 /// KIR3DL3 /// KIR3DL3 /// KIR3DS1 (11738374_at) / Fold change /veh KIR2DL2 /// KIR2DL4 /// KIR2DL5A /// KIR2DL5B /// KIR2DS1 /// KIR2DS2 /// KIR2DS3 /// KIR2DS4 /// KIR3DL3 /// KIR3DL3 /// KIR3DS1 (11738374_at) / RFU C1QL1 (11718748_at) / Fold change /veh C1QL1 (11718748_at) / RFU TMPRSS4 (11747572_a_at) / Fold change /veh TMPRSS4 (11747572_a_at) / RFU HAMP (11756126_x_at) / Fold change /veh HAMP (11756126_x_at) / RFU RNFT2 (11725882_a_at) / Fold change /veh RNFT2 (11725882_a_at) / RFU NR4A2 (11747474_a_at) / Fold change /veh NR4A2 (11747474_a_at) / RFU ABCC12 (11746883_a_at) / Fold change /veh ABCC12 (11746883_a_at) / RFU TMEM136 (11760407_x_at) / Fold change /veh TMEM136 (11760407_x_at) / RFU CLDN22 /// WWC2 (11732394_at) / Fold change /veh CLDN22 /// WWC2 (11732394_at) / RFU HLA-DPB1 (11760878_x_at) / Fold change /veh HLA-DPB1 (11760878_x_at) / RFU SPINT1 (11716480_a_at) / Fold change /veh SPINT1 (11716480_a_at) / RFU GAP43 (11754022_s_at) / Fold change /veh GAP43 (11754022_s_at) / RFU A4GNT (11735810_at) / Fold change /veh A4GNT (11735810_at) / RFU PRB3 (11715151_x_at) / Fold change /veh PRB3 (11715151_x_at) / RFU TUBB4B (11761932_at) / Fold change /veh TUBB4B (11761932_at) / RFU CAPN14 (11732068_a_at) / Fold change /veh CAPN14 (11732068_a_at) / RFU TMCC2 (11721928_a_at) / Fold change /veh TMCC2 (11721928_a_at) / RFU IRGQ (11745062_a_at) / Fold change /veh IRGQ (11745062_a_at) / RFU FAM174B (11720279_a_at) / Fold change /veh FAM174B (11720279_a_at) / RFU TMPRSS4 (11748680_a_at) / Fold change /veh TMPRSS4 (11748680_a_at) / RFU FAM212B (11763350_a_at) / Fold change /veh FAM212B (11763350_a_at) / RFU PLEKHG5 (11743358_a_at) / Fold change /veh PLEKHG5 (11743358_a_at) / RFU ZSCAN30 (11745921_a_at) / Fold change /veh ZSCAN30 (11745921_a_at) / RFU CMKLR1 (11741424_a_at) / Fold change /veh CMKLR1 (11741424_a_at) / RFU LOC101060620 /// MAPK8IP1 (11723275_at) / Fold change /veh LOC101060620 /// MAPK8IP1 (11723275_at) / RFU SPTSSB (11747773_x_at) / Fold change /veh SPTSSB (11747773_x_at) / RFU PRSS12 (11739890_at) / Fold change /veh PRSS12 (11739890_at) / RFU BIN1 (11741810_x_at) / Fold change /veh BIN1 (11741810_x_at) / RFU WNT11 (11732464_a_at) / Fold change /veh WNT11 (11732464_a_at) / RFU C10orf10 (11716521_a_at) / Fold change /veh C10orf10 (11716521_a_at) / RFU C5orf56 (11738089_at) / Fold change /veh C5orf56 (11738089_at) / RFU CYB561 (11721691_x_at) / Fold change /veh CYB561 (11721691_x_at) / RFU ANKRD19P (11752326_a_at) / Fold change /veh ANKRD19P (11752326_a_at) / RFU OR2T12 /// OR2T33 /// OR2T8 (11738714_s_at) / Fold change /veh OR2T12 /// OR2T33 /// OR2T8 (11738714_s_at) / RFU VCAN (11748164_a_at) / Fold change /veh VCAN (11748164_a_at) / RFU JSRP1 (11732532_at) / Fold change /veh JSRP1 (11732532_at) / RFU KRTAP10-11 (11738290_x_at) / Fold change /veh KRTAP10-11 (11738290_x_at) / RFU MYO3A (11730013_a_at) / Fold change /veh MYO3A (11730013_a_at) / RFU EBF3 (11725865_a_at) / Fold change /veh EBF3 (11725865_a_at) / RFU CAMK2N1 (11719241_x_at) / Fold change /veh CAMK2N1 (11719241_x_at) / RFU C5orf56 (11738088_a_at) / Fold change /veh C5orf56 (11738088_a_at) / RFU OLFML3 (11715873_a_at) / Fold change /veh OLFML3 (11715873_a_at) / RFU LOC100653217 /// NTM (11731650_a_at) / Fold change /veh LOC100653217 /// NTM (11731650_a_at) / RFU MAPK11 (11762145_a_at) / Fold change /veh MAPK11 (11762145_a_at) / RFU FIZ1 (11724087_x_at) / Fold change /veh FIZ1 (11724087_x_at) / RFU OASL (11726364_x_at) / Fold change /veh OASL (11726364_x_at) / RFU SOX15 (11748057_x_at) / Fold change /veh SOX15 (11748057_x_at) / RFU CD79A (11719716_a_at) / Fold change /veh CD79A (11719716_a_at) / RFU HIST1H1D (11736915_at) / Fold change /veh HIST1H1D (11736915_at) / RFU CASKIN2 (11723855_a_at) / Fold change /veh CASKIN2 (11723855_a_at) / RFU LOC730098 (11760151_x_at) / Fold change /veh LOC730098 (11760151_x_at) / RFU OR4N2 (11742367_at) / Fold change /veh OR4N2 (11742367_at) / RFU PRRT2 (11749266_a_at) / Fold change /veh PRRT2 (11749266_a_at) / RFU SNX32 (11753110_a_at) / Fold change /veh SNX32 (11753110_a_at) / RFU CDHR5 (11726645_a_at) / Fold change /veh CDHR5 (11726645_a_at) / RFU RCAN1 (11760418_a_at) / Fold change /veh RCAN1 (11760418_a_at) / RFU FAM167A (11723789_a_at) / Fold change /veh FAM167A (11723789_a_at) / RFU FAM26E (11764081_at) / Fold change /veh FAM26E (11764081_at) / RFU ISYNA1 (11749810_s_at) / Fold change /veh ISYNA1 (11749810_s_at) / RFU ACY1 (11761880_at) / Fold change /veh ACY1 (11761880_at) / RFU 11764098_at / Fold change /veh 11764098_at / RFU SAMD14 (11745864_x_at) / Fold change /veh SAMD14 (11745864_x_at) / RFU NPB (11741838_a_at) / Fold change /veh NPB (11741838_a_at) / RFU TMPRSS6 (11731388_a_at) / Fold change /veh TMPRSS6 (11731388_a_at) / RFU KRTAP10-2 (11738614_at) / Fold change /veh KRTAP10-2 (11738614_at) / RFU ARHGAP8 /// PRR5-ARHGAP8 (11727945_x_at) / Fold change /veh ARHGAP8 /// PRR5-ARHGAP8 (11727945_x_at) / RFU KRTAP5-7 /// NADSYN1 (11734609_at) / Fold change /veh KRTAP5-7 /// NADSYN1 (11734609_at) / RFU RASL12 (11751679_a_at) / Fold change /veh RASL12 (11751679_a_at) / RFU CDKN2B (11736163_a_at) / Fold change /veh CDKN2B (11736163_a_at) / RFU PRF1 (11729649_at) / Fold change /veh PRF1 (11729649_at) / RFU, ZNF638 /// ZNF638-IT1 / Fold change vs veh, ZNF638 /// ZNF638-IT1 / RFU, PANK3 / Fold change vs veh, PANK3 / RFU, SH3YL1 / Fold change vs veh, SH3YL1 / RFU, ZEB2 / Fold change vs veh, ZEB2 / RFU, NRIP1 / Fold change vs veh, NRIP1 / RFU, PTTG1IP / Fold change vs veh, PTTG1IP / RFU, CAPN2 / Fold change vs veh, CAPN2 / RFU, MED14 / Fold change vs veh, MED14 / RFU, SNORA58 / Fold change vs veh, SNORA58 / RFU, C1orf63 / Fold change vs veh, C1orf63 / RFU, LRRFIP1 / Fold change vs veh, LRRFIP1 / RFU, NDUFAF7 / Fold change vs veh, NDUFAF7 / RFU, SLC12A2 / Fold change vs veh, SLC12A2 / RFU, IBTK / Fold change vs veh, IBTK / RFU, ESF1 / Fold change vs veh, ESF1 / Fold change vs veh, TMEM50B / RFU, TAOK1 / Fold change vs veh, TAOK1 / RFU, ACBD3 / Fold change vs veh, ACBD3 / RFU, TMA16 / Fold change vs veh, TMA16 / RFU, RWDD3 / Fold change vs veh, RWDD3 / RFU, BCAT1 / Fold change vs veh, BCAT1 / RFU, EDEM3 / Fold change vs veh, EDEM3 / RFU, TMEM33 / Fold change vs veh, TMEM33 / RFU, WDR75 / Fold change vs veh, WDR75 / RFU, AHCTF1 / Fold change vs veh, AHCTF1 / RFU, TFRC / Fold change vs veh, TFRC / RFU, ZDHHC17 / Fold change vs veh, ZDHHC17 / RFU, NOM1 / Fold change vs veh, NOM1 / RFU, ARL8B / Fold change vs veh, ARL8B / RFU, ZBTB11 / Fold change vs veh, ZBTB11 / RFU, TAMM41 / Fold change vs veh, TAMM41 / RFU, KIAA1704 /// LOC100996395 / Fold change vs veh, KIAA1704 /// LOC100996395 / RFU, ING1 / Fold change vs veh, ING1 / RFU, TRMT61B / Fold change vs veh, TRMT61B / RFU, FUBP3 / Fold change vs veh, FUBP3 / RFU, TP53 / Fold change vs veh, TP53 / RFU, TNKS2 / Fold change vs veh, TNKS2 / RFU, ZFP14 / Fold change vs veh, ZFP14 / RFU, ACTR2 / Fold change vs veh, ACTR2 / RFU, PPP3R1 / Fold change vs veh, PPP3R1 / RFU, PIK3R1 / Fold change vs veh, PIK3R1 / RFU, HNRNPA1 / Fold change vs veh, HNRNPA1 / RFU, RNF170 / Fold change vs veh, RNF170 / RFU, ZNF28 / Fold change vs veh, ZNF28 / RFU, RNGTT / Fold change vs veh, RNGTT / RFU, OGT / Fold change vs veh, OGT / RFU, BRD1 / Fold change vs veh, BRD1 / RFU, MARS / Fold change vs veh, MARS / RFU, ZNF655 / Fold change vs veh, ZNF655 / RFU, FAHD1 / Fold change vs veh, FAHD1 / RFU, BDP1 / Fold change vs veh, BDP1 / RFU, LRRCC1 / Fold change vs veh, LRRCC1 / RFU, ARID1A / Fold change vs veh, ARID1A / RFU, ZNF146 / Fold change vs veh, ZNF146 / RFU, ZNF330 / Fold change vs veh, ZNF330 / RFU, GPN3 / Fold change vs veh, GPN3 / RFU, C9orf123 / Fold change vs veh, C9orf123 / RFU, N4BP2L2 / Fold change vs veh, N4BP2L2 / RFU, ARFIP1 / Fold change vs veh, ARFIP1 / RFU, FAM179B / Fold change vs veh, FAM179B / RFU, BCL10 / Fold change vs veh, BCL10 / RFU, UHRF1BP1L / Fold change vs veh, UHRF1BP1L / RFU, BET1 / Fold change vs veh, BET1 / RFU, CNOT2 / Fold change vs veh, CNOT2 / RFU, ZNF268 / Fold change vs veh, ZNF268 / Fold change vs veh, ZNF507 / RFU, DGCR2 / Fold change vs veh, DGCR2 / RFU, WDSUB1 / Fold change vs veh, WDSUB1 / Fold change vs veh, HSP90B1 /// MIR3652 / RFU, ADSS / Fold change vs veh, ADSS / RFU, GK / Fold change vs veh, GK / RFU, ZNF148 / Fold change vs veh, ZNF148 / RFU, TAF9 / Fold change vs veh, TAF9 / RFU, SLC1A5 / Fold change vs veh, SLC1A5 / RFU, SLMO2 / Fold change vs veh, SLMO2 / RFU, ABCC4 / Fold change vs veh, ABCC4 / RFU, LOC101060439 /// RAP1B / Fold change vs veh, LOC101060439 /// RAP1B / RFU, RFX7 / Fold change vs veh, RFX7 / RFU, GTPBP10 / Fold change vs veh, GTPBP10 / RFU, CNEP1R1 / Fold change vs veh, CNEP1R1 / RFU, BIVM-ERCC5 /// ERCC5 / Fold change vs veh, BIVM-ERCC5 /// ERCC5 / RFU, ILF3 / Fold change vs veh, ILF3 / RFU 11762660_at / Fold change /veh 11762660_at / RFU VCAN (11757783_s_at) / Fold change /veh VCAN (11757783_s_at) / RFU DDX43 (11728927_at) / Fold change /veh DDX43 (11728927_at) / RFU KRT8 (11758188_x_at) / Fold change /veh KRT8 (11758188_x_at) / RFU NKD1 (11759106_at) / Fold change /veh NKD1 (11759106_at) / RFU SRD5A1 (11742802_a_at) / Fold change /veh SRD5A1 (11742802_a_at) / RFU TPSAB1 /// TPSB2 (11721975_s_at) / Fold change /veh TPSAB1 /// TPSB2 (11721975_s_at) / RFU GSTM3 (11746129_a_at) / Fold change /veh GSTM3 (11746129_a_at) / RFU IL23R (11737362_x_at) / Fold change /veh IL23R (11737362_x_at) / RFU TMEM51 (11727254_a_at) / Fold change /veh TMEM51 (11727254_a_at) / RFU PIWIL2 (11732686_x_at) / Fold change /veh PIWIL2 (11732686_x_at) / RFU ORM1 (11744905_x_at) / Fold change /veh ORM1 (11744905_x_at) / RFU CCDC152 (11743942_at) / Fold change /veh CCDC152 (11743942_at) / RFU ECM1 (11717891_a_at) / Fold change /veh ECM1 (11717891_a_at) / RFU IL23R (11748794_a_at) / Fold change /veh IL23R (11748794_a_at) / RFU TNFAIP8L3 (11732012_x_at) / Fold change /veh TNFAIP8L3 (11732012_x_at) / RFU MBOAT4 (11741988_at) / Fold change /veh MBOAT4 (11741988_at) / RFU 11764193_at / Fold change /veh 11764193_at / RFU TMEM53 (11763286_at) / Fold change /veh TMEM53 (11763286_at) / RFU MAGEB2 (11727129_at) / Fold change /veh MAGEB2 (11727129_at) / RFU TMEM200A (11744735_a_at) / Fold change /veh TMEM200A (11744735_a_at) / RFU CCDC152 (11751479_a_at) / Fold change /veh CCDC152 (11751479_a_at) / RFU FAM211A (11726209_a_at) / Fold change /veh FAM211A (11726209_a_at) / RFU RGS16 (11746705_a_at) / Fold change /veh RGS16 (11746705_a_at) / RFU VCAN (11755009_s_at) / Fold change /veh VCAN (11755009_s_at) / RFU RHOB (11743442_s_at) / Fold change /veh RHOB (11743442_s_at) / RFU RGS16 (11720943_a_at) / Fold change /veh RGS16 (11720943_a_at) / RFU RGS16 (11720944_at) / Fold change /veh RGS16 (11720944_at) / RFU, VPS4B / Fold change vs veh, VPS4B / RFU, CREB1 / Fold change vs veh, CREB1 / RFU, DNAJC13 / Fold change vs veh, DNAJC13 / RFU, GNAQ / Fold change vs veh, GNAQ / RFU, CDK5R1 / Fold change vs veh, CDK5R1 / RFU, ZRANB3 / Fold change vs veh, ZRANB3 / RFU, CUL4A / Fold change vs veh, CUL4A / RFU, CCNY / Fold change vs veh, CCNY / RFU, UFL1 / Fold change vs veh, UFL1 / RFU, COG3 / Fold change vs veh, COG3 / RFU, DIAPH2 / Fold change vs veh, DIAPH2 / RFU, SKA2 / Fold change vs veh, SKA2 / RFU, AFF3 / Fold change vs veh, AFF3 / RFU, LMF1 / Fold change vs veh, LMF1 / RFU, IPO11 / Fold change vs veh, IPO11 / RFU, DFFB / Fold change vs veh, DFFB / RFU, FOXP1 / Fold change vs veh, FOXP1 / RFU, CARD8 / Fold change vs veh, CARD8 / RFU, STRN3 / Fold change vs veh, STRN3 / RFU, ADK / Fold change vs veh, ADK / RFU, RASSF2 / Fold change vs veh, RASSF2 / RFU, WIPF1 / Fold change vs veh, WIPF1 / RFU, LARP1B / Fold change vs veh, LARP1B / RFU, RASA1 / Fold change vs veh, RASA1 / RFU, RB1 / Fold change vs veh, RB1 / RFU, PPFIA1 / Fold change vs veh, PPFIA1 / RFU, MAT2A / Fold change vs veh, MAT2A / RFU, CCT5 / Fold change vs veh, CCT5 / RFU, WDR92 / Fold change vs veh, WDR92 / RFU, CUX1 / Fold change vs veh, CUX1 / RFU, TTC7A / Fold change vs veh, TTC7A / RFU, TMEM135 / Fold change vs veh, TMEM135 / RFU, DEPTOR / Fold change vs veh, DEPTOR / RFU, CPM / Fold change vs veh, CPM / RFU, DNAJB6 / Fold change vs veh, DNAJB6 / RFU, CACNA2D3 / Fold change vs veh, CACNA2D3 / RFU, DTX4 / Fold change vs veh, DTX4 / RFU, TFCP2 / Fold change vs veh, TFCP2 / RFU, GMCL1 /// GMCL1P1 / Fold change vs veh, GMCL1 /// GMCL1P1 / RFU, AEBP2 / Fold change vs veh, AEBP2 / RFU, SNHG1 /// SNORD22 /// SNORD25 /// SNORD26 /// SNORD27 /// SNORD28 /// SNORD29 /// SNORD31 / Fold change vs veh, SNHG1 /// SNORD22 /// SNORD25 /// SNORD26 /// SNORD27 /// SNORD28 /// SNORD29 /// SNORD31 / Fold change (Aza/veh), C12orf56 (ProbeSet 11735607_a_at) / Fold change (ACY-1035/veh), C12orf56 (ProbeSet 11735607_a_at) / Fold change (Aza/veh), FGFR1OP (ProbeSet 11751329_s_at) / Fold change (ACY-1035/veh), FGFR1OP (ProbeSet 11751329_s_at) / Fold change (Aza/veh), VPS36 (ProbeSet 11739960_a_at) / Fold change (ACY-1035/veh), VPS36 (ProbeSet 11739960_a_at) / RFU SYPL1 (11715823_x_at) / Fold change /veh SYPL1 (11715823_x_at) / RFU IGFBP7 (11715501_s_at) / Fold change /veh IGFBP7 (11715501_s_at) / RFU REEP3 (11722064_at) / Fold change /veh REEP3 (11722064_at) / RFU IGLL1 (11728026_x_at) / Fold change /veh IGLL1 (11728026_x_at): dose or concentration left out as unconfirmed
# Conditions: ProbeSet 11730501_a_at; LIST D
compound,measurement,value
Nc1ccc(-c2cccs2)cc1NC(=O)c1ccc2c(c1)cc(C1CC1)n2CCN1CCOCC1 [ACY-1035],"RFU, CACNA2D3",202.11 RFU

# — PMC5218480 (PLoS ONE, 2017)
